The values below come from US11247973B2 (The University of Durham, priority 2016, dated 2022).

SMILES strings stand for the structures. “And” between values parts separate entries of the source, which are not always exact repeats. Identical values can stand only once. Like-named read-outs stand apart in the source and are kept apart here.

A word on the CC50: it is the concentration at which the toxic effect on the cells reaches its halfway point. A word on the IC50: it is the concentration at which inhibition is half-maximal.

Format in all cases: cell-based
Series [1] concerns HepG2 cells. Kind of series: Cell cytotoxicity CC50, HepG2 cells (CellTox Green). The settings on record: 48-hour incubation, multiple values = multiple test occasions, read-out: Tox CC50. The method, then: (§1) HepG2 cells, in media supplemented with 10% fetal bovine serum (FBS), were seeded at […] into white walled 96 well plates and incubated at 37° C., 5% CO2. Twenty-four hours post seeding media was removed and replaced with media supplemented with 2% FBS and containing final compound concentrations equal to those tested in parallel virus plaque assays. Following a further 48-hour incubation cell cytotoxicity was determined using the CellTox™ Green (Promega) kit and […] read using an appropriate protocol on a GloMax® Explorer System (Promega). During analysis DMSO containing wells were used as a negative control and lysed cells as a positive control.

Assay in series [2]: as above
The settings on record: human, 48-hour incubation, multiple values = multiple test occasions, read-out: Tox CC50. Here is the method: as §1

Series [3] relates to RSV A2 VR-1540. Kind of series: Second plaque reduction assay (HEp-2 cells). The settings on record: multiple values = multiple test occasions. From the text: Cells were obtained from ATCC and the virus preparation was subjected to one round of centrifugation through a 40% (V/V) glycerol to remove any interferon produced from infected cells. Growth medium was Dulbecco's modified Eagle's medium (DMEM) with 10% (v/v) foetal calf serum (FCS), Viral maintenance medium was DMEM+2% (v/v) FCS.
The RSV plaque reduction assay is an infectivity assay which allows quantification of the number of infectious units in a distinct foci of RSV infection. This is indicated by zones of viral antigen detected by specific antibody staining within a monolayer of otherwise healthy tissue culture cells. As each plaque originates from a single infectious virus particle an accurate calculation of the anti-viral effect can be obtained by counting plaques in the presence and absence of an anti-viral compound. HEp-2 cells (ATCC, CCL23) were passaged in flasks and seeded in 96-well plates in DMEM containing antibiotics and supplemented with 10% FBS. During inoculation and subsequent incubation, cells were cultured in DMEM containing 3% FBS. 100 plaque forming unit (PFU)/well of RSV (RSV A2 VR-1540) was mixed with ten serial dilutions of compound. Subsequently, 100 μL of the virus/compound mixtures was added to confluent HEp-2 cell monolayers. The cells and virus/compound mixtures were incubated at 35° C. in a humidified 5% CO2 incubator for 1 day.
Cells were washed twice with PBS before adding 50% v/v EtOH/MeOH, and then stored at −20° C. On the day of the staining, fixative was first removed from the plates. Plates were washed 3× with PBS. A pre-titrated amount of the primary antibody was added in 60 μL PBS/2% milk powder, and plates incubated for 1 h at rt. The plates were washed 3× with PBS/0.05% Tween20 before addition of goat anti-mouse horse radish peroxidase in 60 μL PBS/2% milk powder, and incubated for 1 h at rt. Following three wash steps with PBS/0.05% Tween20, 60 μL ready-to-use TrueBlue was added and plates were incubated at rt for 10-15 min before adding MilliQ water. Plates were washed once with water, incubated for 30-60 min and after removal of water, air-dried in the dark.
Plates were scanned and analyzed using the Immunospot S6 UV analyzer, which is equipped with BioSpot analysis software for counting immunostained plaques (virospots). Plaque counts were used to calculate % infection relative to the mean of the spot count (SC) in the virus control wells for RSV. IC50/IC90 values were calculated as 50% or 90% reduction in signal, respectively, by interpolation of inhibition curves fitted with a 4-parameter nonlinear regression with a variable slope in GraphPad 5.0 (Prism).
(In general: In a plaque reduction assay, fewer plaques than in the control indicate reduced infectivity or spread.)

Series [4] is described as follows: Cell cytotoxicity CC50 assay (A549 and HeLa cells). Particulars: human, 6-8 days, DMEM+2% FCS. From the text: (§2) Cells were obtained from ATCC and the virus preparation was subjected to one round of centrifugation through a 40% (V/V) glycerol to remove any interferon produced from infected cells. Growth medium was Dulbecco's modified Eagle's medium (DMEM) with 10% (v/v) foetal calf serum (FCS), Viral maintainance medium was DMEM+2% (v/v) FCS.
Cell Cytotoxicity—CC50 (Concentration at which 50% Cell Toxicity is Observed):
(§3) A549 cells and HeLa cells were used to seed a set of 96 well plates grown until 50% confluent, a 2 fold serial dilution of the compound was performed on each cell line with DMSO (only) as control starting with 100 μM of the compound. Medium used was DMEM+2% FCS (normal medium for viral growth).
(§4) Cells were allowed to grow for 6-8 days to mimic a TCID50 assay after which cell viability was determined by adding Almar blur (similar to XT) and reading at 600 nm (excitation 540 nm).

For series [5], the system named is RSV. Kind of series: Cytopathic effect (CPE) assay. The settings on record: human respiratory syncytial virus, read-out: CPE IC50.
From the text: as §2
Cytopathic Effect (CPE) Assay—IC50:
as §3, §4

The mark [6] stands for this setting: human respiratory syncytial virus, HEp-2, 24 h, read-out: Plaque IC50, HEp-2 cells, RSV A2, 1 day.
Where [7] appears, read: read-out: Plaque IC50, HEp-2 cells, RSV A2, 1 day.

Consider `CC(C)[C@@H](Nc1c(F)c(F)nc(F)c1F)C(=O)N[C@H]1N=C(c2ccccc2)c2ccccc2NC1=O` [Compound 8, (2R)-3-Methyl-N-[(3S)-2-oxo-5-phenyl-2,3-dihydro-1H-1,4-benzodiazepin-3-yl]-2-[(2,3,5,6-tetrafluoropyridin-4-yl)amino]butanamide], for which, in series [1], the CC50 stood at 16.3 µM. Besides, the CC50 at 48 h in series [2] is more than 25 µM.
Turning to `O=C1Nc2ccccc2C(c2ccccc2)=N[C@@H]1NC(=O)[C@H]1CCCN1c1c(F)c(F)nc(F)c1F` [Compound 6, N(2R)-N-[(3S)-2-oxo-5-phenyl-2,3-dihydro-1H-1,4-benzomazepin-3-yl]-1-(2,3,5,6-tetrafluoropyridin-4-yl)pyrrolidine-2-carboxamide], the CC50 in series [1] was more than 25 µM. The IC50 in series [3] (HEp-2 cells, RSV A2, 1 day, read-out: Plaque IC50) is 4.39 µM and 8.33 µM.
As to `CC(C)[C@H](Nc1c(F)c(F)nc(F)c1F)C(=O)N[C@H]1N=C(c2ccccc2)c2ccccc2NC1=O` [Compound 7, (2S)-3-Methyl-N-[(3S)-2-oxo-5-phenyl-2,3-dihydro-1H-1,4-benzodiazepin-3-yl]-2-[(2,3,5,6-tetrafluoropyridin-4-yl)amino]butanamide], the CC50 in series [1] is more than 25 µM. Also, in series [2], the CC50 at 48 h turned out to be 16 µM. Besides, the IC50 is 5.18 µM in series [3] (setting [6]); 8.68 µM and 10 µM in series [3] (setting [7]).
Turning to `O=C(CNc1nc(F)c(F)c(N2CCOCC2)c1F)N[C@H]1N=C(c2ccccc2)c2ccccc2NC1=O` [Compound 14, N-[(3S)-2-oxo-5-phenyl-2,3-dihydro-1H-1,4-benzodiazepin-3-yl]-2-{[3,5,6-trifluoro-4-(morpholin-4-yl)pyridin-2-yl]amino}acetamide], the CC50 at 48 h in series [2] is more than 25 µM.
The compound `CCOc1nc(F)c(F)c(NCC(=O)N[C@H]2N=C(c3ccccc3)c3ccccc3NC2=O)c1F` [Compound 4, 2-[(2-ethoxy-3,5,6-trifluoropyridin-4-yl)amino]-N-{(3S)-2-oxo-5-phenyl-2,3-dihydro-1H-1,4-benzodiazepin-3-yl]acetamide] gave a CC50 in series [4] of more than 100 µM. In series [5], the IC50 is 2.5 µM.
For the compound `C[C@H](Nc1c(F)c(F)nc(F)c1F)C(=O)N[C@H]1N=C(c2ccccc2)c2ccccc2NC1=O` [Compound 9, (2S)-N-[(3S)-2-oxo-5-phenyl-1,3-dihydro-1,4-benzodiazepin-3-yl]-2-[(2,3,5,6-tetrafluoropyridin-4-yl)amino]propanamide], in series [2], the CC50 at 48 h was more than 25 µM. Also, the IC50 in series [3] (setting [6]) was found to be 5.22 µM; in series [3] (setting [7]), 3.76 µM.
The corresponding values for `O=C(CNc1cc(Cl)ncn1)N[C@H]1N=C(c2ccccc2)c2ccccc2NC1=O` [Compound 18, 2-[(6-Chloropyrimidin-4-yl)amino]-N-[(3S)-2-oxo-5-phenyl-2,3-dihydro-1H-1,4-benzodiazepin-3-yl]acetamide] are more than 25 µM, 4.93 µM and 9.33 µM.
Take `C[C@@H](Nc1c(F)c(F)nc(F)c1F)C(=O)N[C@H]1N=C(c2ccccc2)c2ccccc2NC1=O` [Compound 10, (2R)-N-[(3S)-2-oxo-5-phenyl-1,3-dihydro-1,4-benzodiazepin-3-yl]-2-[(2,3,5,6-tetrafluoropyridin-4-yl)amino]propanamide]: in series [2], the CC50 at 48 h was more than 25 µM. In addition, the IC50 in series [3] (setting [6]) is 3.38 µM; in series [3] (setting [7]), 1.79 µM.
For `O=C(N[C@H]1N=C(c2ccccc2)c2ccccc2NC1=O)[C@H](Cc1ccccc1)Nc1c(F)c(F)nc(F)c1F` [Compound 11], the CC50 in series [1] is more than 25 µM.
For `O=C(CNc1ccccc1)N[C@H]1N=C(c2ccccc2)c2ccccc2NC1=O` [Compound 1, N-{(3S)-2-oxo-5-phenyl-2,3-dihydro-1H-1,4-benzodiazepin-3-yl](phenylamino)acetamide], the CC50 in series [4] was determined as 25 µM. Besides, the IC50 in series [5] (A549 cells and HeLa cells, 6-8 days, DMEM+2% FCS) is 2.5 µM.
